# Data reported in BindingDB's records for patent US20250034122 (Mission Therapeutics, 2025).
# Target: T1, Ubiquitin carboxyl-terminal hydrolase 30 (Homo sapiens, UniProt Q70CQ3)
# T1 sequence (Q70CQ3 whole entry): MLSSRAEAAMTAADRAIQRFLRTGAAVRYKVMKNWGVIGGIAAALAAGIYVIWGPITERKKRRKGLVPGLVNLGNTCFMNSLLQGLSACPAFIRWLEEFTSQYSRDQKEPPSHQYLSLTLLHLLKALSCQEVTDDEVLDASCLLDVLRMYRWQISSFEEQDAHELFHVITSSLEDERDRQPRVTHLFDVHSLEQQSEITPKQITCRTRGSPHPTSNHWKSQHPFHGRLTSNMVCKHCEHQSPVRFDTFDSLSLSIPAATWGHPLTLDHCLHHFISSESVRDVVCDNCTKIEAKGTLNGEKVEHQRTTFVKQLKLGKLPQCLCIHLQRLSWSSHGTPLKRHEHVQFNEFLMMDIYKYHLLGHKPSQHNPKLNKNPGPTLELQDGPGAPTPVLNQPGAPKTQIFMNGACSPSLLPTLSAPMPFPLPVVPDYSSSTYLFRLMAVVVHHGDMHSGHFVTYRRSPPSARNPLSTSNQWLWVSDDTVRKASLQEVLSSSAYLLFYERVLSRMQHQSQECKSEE
# Test: USP30 Biochemical IC50 Assay
# Description: A typical 8-point dilution series would be 100, 30, 10, 3, 1, 0.3, 0.1, 0.03 μM final.
smiles,measurement,value
"N#CN1C[C@H](NC(=O)C2NC(c3cccc(C(F)(F)F)c3)=CO2)C[C@H]1Cn1cccn1 (stereo partly specified) [US20250034122, Example 30]",IC50,11 nM
